In US20240173344A1, “USE OF GABAA RECEPTOR AS TARGET IN PREPARATION OR SCREENING OF DRUG FOR LOWERING BLOOD LIPID LEVEL, TREATING OBESITY, AND/OR IMPROVING METABOLISM” (SHANGHAI INSTITUTE OF ENDOCRINE AND METABOLIC DISEASES, priority 2022, published 2024):
Where “and” joins values, the source holds several entries; their conditions need not be identical. Equal values may be shown once.

What was measured:
[1] = test system: neurons in the DMV; assay: Electrophysiological whole-cell patch-clamp recording of brain slices; type: cell-based; details: during puerarin incubation (concentration: 10 mM), current clamp, brain slices of obese mice
Procedure: Obese mouse models fed with a high-fat feed for 12 weeks were taken and myocardially perfused with an artificial cerebrospinal fluid (ACSF), and 200 μm to 300 μm-thick brainstem tissue slices were prepared by vibration slicing; and brain slices were incubated in oxygen at 35° C. for 1 h and then transferred to a patch-clamp system for whole-cell patch-clamp recording. Recorded neurons were selected according to the cellular morphology in the DMV, and a green-fluorescent dye was added to a pipette solution to label cells.

[2] = molecular target: T1, GABAA (α1β3γ2) receptor (Homo sapiens, UniProt P14867+P18507); assay: Bioelectric signal of 293S cell line with GABA and puerarin co-incubation; type: cell-based; details: 0.5 μM GABA co-incubated with puerarin for 3 min to 5 min
T1 construct: expressed in transfected cells

[3] = molecular target: T2, γ2 subunit of the GABAA receptor (Gabrg2) in the DMV (Mus musculus, UniProt P22723+P62812); assay: DMV-specific knockdown of Gabrg2 to block puerarin in obese mouse model: body weight, blood lipid, jejunal TG, c-fos; type: in vivo, mice; details: for Body weight curve change percentage / Jejunal TG level / Blood lipid level: single mice and mean
T2 construct: from tissue; host or cells: brainstem DMV of living obese mice
Procedure: A method for determining TG in a sample was as follows: 20 mg to 30 mg of a sample was first weighed, a 5% NP40-containing lysis buffer was added, and a resulting mixture was homogenated and incubated in a metal bath at 95° C. for 5 min, which was repeated twice. A resulting homogenate was cooled to room temperature and then centrifuged at 15,000 rpm for 2 min to 3 min, and a resulting supernatant was pipetted for determination. A Biovision kit was used to determine TG. 2 μl of the supernatant was added to each well, and after a chromogenic reaction was completed, a value of each well was determined by a microplate reader. TG in the small intestinal tissue was quantified through a standard protein concentration; and a total amount of lipids excreted with the feces was calculated based on a measured value of the feces sample and a total mass of the sample at 24 h.
Similar to the above experiment, the rAAV-DIO-Gabrg2-shRNA (BrainVTA, China) was used to knock down Gabrg2 (a gene encoding the γ2 subunit of the GABAA receptor) in the DMV in an obese mouse model, and the rAAV-DIO-mCherry (BrainVTA, China) was used as a control group.

[4] = test system: obese mouse model; assay: Intraperitoneal puerarin for 20 d in high-fat-diet obese mouse model: body weight, blood lipid, jejunal TG, c-fos staining, oil red O staining; type: in vivo, C57BL/6J mice; details: brain slice c-fos immunofluorescence, puerarin i.p. 20 d vs control group
Procedure: The C57BL/6J mice were used as experimental mice in the present disclosure. The experimental mice each were raised in an SPF-level environment at 22° C. to 24° C. with a 12:12 circadian rhythm, and the experimental mice each were subjected to anaesthesia, analgesia, surgery, intraperitoneal injection, and other experimental operations in accordance with the relevant provisions of animal ethics.
In the present disclosure, the mice were fed with a high-fat diet in which a mass percentage of fat was 60% for 12 weeks, and when a body weight reached 35 g or more, animal models of alimentary obesity were successfully constructed. At a formal stage of the experiment (starting on day 0 in FIG. 1A, FIG. 3A, FIG. 6A, and FIG. 7A), the mice were raised in single cages, during which a daily food intake of each mouse model was accurately recorded, the feces was collected before and after drug intervention, and a daily body weight curve was recorded.
A method for determining TG in a sample was as follows: 20 mg to 30 mg of a sample was first weighed, a 5% NP40-containing lysis buffer was added, and a resulting mixture was homogenated and incubated in a metal bath at 95° C. for 5 min, which was repeated twice. […] 2 μl of the supernatant was added to each well, and after a chromogenic reaction was completed, a value of each well was determined by a microplate reader. […]

[5] = molecular target: T3, α1 subunit of the GABAA receptor (Gabra1) in the DMV (Mus musculus, UniProt P22723+P62812); assay: DMV-specific knockdown of Gabra1 to block puerarin in obese mouse model: body weight, blood lipid, jejunal TG, c-fos; type: in vivo, mice; details: for Body weight curve change percentage: single mice and mean
T3 construct: from tissue; host or cells: brainstem DMV of living obese mice

[6] = molecular target: T4, GABAA receptor in the DMV (Mus musculus, UniProt P22723+P62812); assay: Colocalization staining of puerarin probe with GABAA receptor on brain slices; details: brain slice tissue, immunofluorescence staining
T4 construct: from tissue; host or cells: brain slice tissue (DMV)

[7] = Puerarin group (control virus in DMV, puerarin i.p. daily), Day 0 baseline
[8] = Puerarin group (control virus, puerarin i.p. 7 d)
[9] = Puerarin group (control virus, puerarin i.p. 7 d), mean
[10] = Puerarin group vs control group

T3 sequence (P62812 28-455): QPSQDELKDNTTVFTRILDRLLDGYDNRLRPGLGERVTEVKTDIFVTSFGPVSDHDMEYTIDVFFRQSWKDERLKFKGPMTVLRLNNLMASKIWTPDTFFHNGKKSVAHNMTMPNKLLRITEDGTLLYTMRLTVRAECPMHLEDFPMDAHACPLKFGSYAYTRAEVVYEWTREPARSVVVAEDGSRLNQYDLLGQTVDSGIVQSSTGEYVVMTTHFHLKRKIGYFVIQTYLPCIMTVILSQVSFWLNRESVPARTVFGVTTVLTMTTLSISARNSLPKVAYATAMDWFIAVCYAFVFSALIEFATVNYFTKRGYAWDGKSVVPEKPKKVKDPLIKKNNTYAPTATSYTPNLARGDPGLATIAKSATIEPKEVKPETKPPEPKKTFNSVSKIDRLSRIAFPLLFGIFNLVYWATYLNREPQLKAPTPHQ
T3 sequence (P63080 26-473 partner): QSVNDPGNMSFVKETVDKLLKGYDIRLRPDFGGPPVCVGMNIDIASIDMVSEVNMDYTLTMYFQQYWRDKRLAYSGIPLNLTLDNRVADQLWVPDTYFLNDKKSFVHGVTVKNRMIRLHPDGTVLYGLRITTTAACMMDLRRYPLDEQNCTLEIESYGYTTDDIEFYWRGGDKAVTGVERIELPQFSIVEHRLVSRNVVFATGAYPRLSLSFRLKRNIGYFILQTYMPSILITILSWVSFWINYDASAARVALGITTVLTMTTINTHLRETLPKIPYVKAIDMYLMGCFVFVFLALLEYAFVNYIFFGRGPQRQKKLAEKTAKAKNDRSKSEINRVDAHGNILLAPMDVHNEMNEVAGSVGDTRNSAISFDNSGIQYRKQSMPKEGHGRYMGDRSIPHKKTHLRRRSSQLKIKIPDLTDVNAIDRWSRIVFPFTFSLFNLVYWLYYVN
T3 sequence (P22723 39-474): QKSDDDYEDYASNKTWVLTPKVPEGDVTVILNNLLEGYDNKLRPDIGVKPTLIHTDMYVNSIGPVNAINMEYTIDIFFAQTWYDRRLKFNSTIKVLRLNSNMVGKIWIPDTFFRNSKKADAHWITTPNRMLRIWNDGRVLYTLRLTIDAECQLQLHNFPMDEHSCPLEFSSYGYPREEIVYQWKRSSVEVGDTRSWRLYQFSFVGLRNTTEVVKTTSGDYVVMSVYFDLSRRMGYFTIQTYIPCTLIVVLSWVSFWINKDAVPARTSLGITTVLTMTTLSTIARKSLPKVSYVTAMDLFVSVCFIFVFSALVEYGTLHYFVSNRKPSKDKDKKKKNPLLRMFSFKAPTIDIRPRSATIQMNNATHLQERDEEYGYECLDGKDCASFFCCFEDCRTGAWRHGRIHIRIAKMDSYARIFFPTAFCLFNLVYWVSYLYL
T2 sequence (P22723 39-474): as above
T2 sequence (P62812 28-455): as the sequence (P62812 28-455) above
T2 sequence (P63080 26-473 partner): as the sequence (P63080 26-473 partner) above
T4 sequence (P62812 28-455): as the sequence (P62812 28-455) above
T4 sequence (P63080 26-473 partner): as the sequence (P63080 26-473 partner) above
T4 sequence (P22723 39-474): as the sequence (P22723 39-474) above
T1 sequence (P14867 28-456): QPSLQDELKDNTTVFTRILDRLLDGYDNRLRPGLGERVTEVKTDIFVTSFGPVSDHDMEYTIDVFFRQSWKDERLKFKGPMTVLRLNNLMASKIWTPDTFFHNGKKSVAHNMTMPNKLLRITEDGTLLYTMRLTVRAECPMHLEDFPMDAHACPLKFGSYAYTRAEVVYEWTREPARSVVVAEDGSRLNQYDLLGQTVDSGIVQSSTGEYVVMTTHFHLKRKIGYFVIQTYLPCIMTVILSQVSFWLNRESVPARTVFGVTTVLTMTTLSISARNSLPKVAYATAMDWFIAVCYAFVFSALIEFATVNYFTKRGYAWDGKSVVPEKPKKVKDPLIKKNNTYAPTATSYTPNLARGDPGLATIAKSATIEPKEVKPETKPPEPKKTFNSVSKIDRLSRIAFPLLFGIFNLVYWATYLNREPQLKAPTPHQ
T1 sequence (P28472 26-473 partner): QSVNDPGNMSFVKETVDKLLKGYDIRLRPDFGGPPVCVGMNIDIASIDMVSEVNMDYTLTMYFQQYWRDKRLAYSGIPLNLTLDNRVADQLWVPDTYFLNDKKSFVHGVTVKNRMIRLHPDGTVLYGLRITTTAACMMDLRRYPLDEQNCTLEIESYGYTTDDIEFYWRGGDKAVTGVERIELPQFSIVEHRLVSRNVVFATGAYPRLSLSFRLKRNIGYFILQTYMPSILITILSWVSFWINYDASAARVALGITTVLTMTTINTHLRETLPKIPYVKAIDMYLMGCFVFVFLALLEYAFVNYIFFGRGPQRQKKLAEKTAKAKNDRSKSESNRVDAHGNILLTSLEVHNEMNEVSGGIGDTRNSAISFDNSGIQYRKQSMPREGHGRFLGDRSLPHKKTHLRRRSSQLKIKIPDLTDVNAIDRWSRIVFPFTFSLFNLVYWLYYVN
T1 sequence (P18507 40-475): as the sequence (P22723 39-474) above

In the case of O=c1c(-c2ccc(O)cc2)coc2c([C@@H]3O[C@H](CO)[C@@H](O)[C@H](O)[C@H]3O)c(O)ccc12 [Puerarin, puerarin], the “Action potential discharge frequency of neurons in the DMV” value [1] is reported as “significantly reduced”, the “Membrane potential of neurons in the DMV” value [1] is reported as “slightly lower than the initial baseline” and the “Chloride influx / bioelectric signal change” value [2] is reported as “increased chloride ions would enter cells, causing hyperpolarization”. For the same molecule, the “Body weight curve change percentage” value ([3]; Gγ2 blocking group (Gabrg2 shRNA virus in DMV, puerarin i.p. daily), Day 0 baseline) was 0.00%, the “Jejunal TG level” value ([3]; Gγ2 blocking group (Gabrg2 shRNA virus, puerarin i.p. 7 d)) was 1.1912 μmol/mg/protein and 1.5075 μmol/mg/protein and 1.6522 μmol/mg/protein and 1.1566 μmol/mg/protein and 1.0093 μmol/mg/protein and the “Jejunal TG level” value ([3]; Gγ2 blocking group (Gabrg2 shRNA virus, puerarin i.p. 7 d), mean) was 1.3034 μmol/mg/protein. The “Body weight curve change percentage” value ([3]; Gγ2 blocking group (Gabrg2 shRNA virus, puerarin i.p. daily), Day 1) was 0.82% and 0.55% and −0.82% and −0.55% and 0.79%, the “Body weight curve change percentage” value ([3]; Gγ2 blocking group (Gabrg2 shRNA virus, puerarin i.p. daily), Day 1, mean) was 0.16% and the “Body weight curve change percentage” value ([3]; Gγ2 blocking group (Gabrg2 shRNA virus, puerarin i.p. daily), Day 2) was 1.37% and −0.28% and 0.27% and 0.54% and −0.81%. For the same molecule, the “Body weight curve change percentage” value ([3]; Gγ2 blocking group (Gabrg2 shRNA virus, puerarin i.p. daily), Day 2, mean) was 0.22%, the “Body weight curve change percentage” value ([3]; Gγ2 blocking group (Gabrg2 shRNA virus, puerarin i.p. daily), Day 3) was 0.55% and −1.13% and 0.54% and 1.08% and 1.57% and the “Body weight curve change percentage” value ([3]; Gγ2 blocking group (Gabrg2 shRNA virus, puerarin i.p. daily), Day 3, mean) was 0.52%. For the same molecule, the “Body weight curve change percentage” value ([3]; Gγ2 blocking group (Gabrg2 shRNA virus, puerarin i.p. daily), Day 4) was 0.28% and −1.41% and 0.80% and 1.60% and 1.06%, the “Body weight curve change percentage” value ([3]; Gγ2 blocking group (Gabrg2 shRNA virus, puerarin i.p. daily), Day 4, mean) was 0.47% and the “Body weight curve change percentage” value ([3]; Gγ2 blocking group (Gabrg2 shRNA virus, puerarin i.p. daily), Day 5) was 0.55% and −0.56% and 2.62% and 3.41% and 0.79%. The “Body weight curve change percentage” value ([3]; Gγ2 blocking group (Gabrg2 shRNA virus, puerarin i.p. daily), Day 5, mean) was 1.36%, the “Body weight curve change percentage” value ([3]; Gγ2 blocking group (Gabrg2 shRNA virus, puerarin i.p. daily), Day 6) was 0.55% and −0.56% and 2.62% and 3.41% and 1.83% and the “Body weight curve change percentage” value ([3]; Gγ2 blocking group (Gabrg2 shRNA virus, puerarin i.p. daily), Day 6, mean) was 1.57%. For the same molecule, the “Body weight curve change percentage” value ([3]; Gγ2 blocking group (Gabrg2 shRNA virus, puerarin i.p. daily), Day 7) was 0.82% and 0.00% and 2.37% and 3.16% and 2.09%, the “Body weight curve change percentage” value ([3]; Gγ2 blocking group (Gabrg2 shRNA virus, puerarin i.p. daily), Day 7, mean) was 1.69% and the “c-fos staining signal of neurons in the DMV” value ([3]; Gγ2 blocking group (tissue-specific knockdown of Gabrg2, puerarin i.p.)) was “could intervene in the inhibitory effect of puerarin on neurons in the DMV”. For the same molecule, the “Body weight curve change percentage” value [3, 7] was 0.00%, the Blood lipid level [3, 8] was 0.6408 mM and 0.7143 mM and 0.8673 mM and 0.7337 mM and 0.7380 mM and the “Jejunal TG level” value [3, 8] was 0.9191 μmol/mg/protein and 0.8860 μmol/mg/protein and 0.8466 μmol/mg/protein and 0.9139 μmol/mg/protein and 0.7516 μmol/mg/protein. For the same molecule, the Blood lipid level [3, 9] was 0.7388 mM, the “Jejunal TG level” value [3, 9] was 0.8634 μmol/mg/protein and the “Body weight curve change percentage” value ([3]; Puerarin group (control virus, puerarin i.p. daily), Day 1) was −1.10% and −1.06% and −0.81% and −0.79% and 0.82%. The “Body weight curve change percentage” value ([3]; Puerarin group (control virus, puerarin i.p. daily), Day 1, mean) was −0.59%, the “Body weight curve change percentage” value ([3]; Puerarin group (control virus, puerarin i.p. daily), Day 2) was −0.82% and −1.60% and −0.81% and −1.06% and −1.11% and the “Body weight curve change percentage” value ([3]; Puerarin group (control virus, puerarin i.p. daily), Day 2, mean) was −1.08%. The “Body weight curve change percentage” value ([3]; Puerarin group (control virus, puerarin i.p. daily), Day 3) was −2.50% and −0.53% and −2.20% and −1.33% and −1.68%, the “Body weight curve change percentage” value ([3]; Puerarin group (control virus, puerarin i.p. daily), Day 3, mean) was −1.65% and the “Body weight curve change percentage” value ([3]; Puerarin group (control virus, puerarin i.p. daily), Day 4) was −3.07% and −2.14% and −2.76% and −1.87% and −0.83%. The “Body weight curve change percentage” value ([3]; Puerarin group (control virus, puerarin i.p. daily), Day 5) was −4.83% and −2.97% and −1.64% and −5.20%, the “Body weight curve change percentage” value ([3]; Puerarin group (control virus, puerarin i.p. daily), Day 5, mean) was −3.52% and the “Body weight curve change percentage” value ([3]; Puerarin group (control virus, puerarin i.p. daily), Day 6) was −5.13% and −4.10% and −3.05% and −5.54% and −3.41%. The “Body weight curve change percentage” value ([3]; Puerarin group (control virus, puerarin i.p. daily), Day 6, mean) was −4.24%, the “Body weight curve change percentage” value ([3]; Puerarin group (control virus, puerarin i.p. daily), Day 7) was −6.34% and −4.96% and −3.33% and −5.54% and −3.41% and the “Body weight curve change percentage” value ([3]; Puerarin group (control virus, puerarin i.p. daily), Day 7, mean) was −4.72%. For the same molecule, the “c-fos staining signal of neurons in the DMV” value [3, 10] was “inhibited by puerarin”, the “Number of c-fos fluorescence signals in the DMV brain region” value [4] was “smaller than that in the control group” and the “Body weight curve change percentage” value ([5]; Gα1 blocking group (Gabra1 shRNA virus in DMV, puerarin i.p. daily), Day 0 baseline) was 0.00%. The “Body weight curve change percentage” value ([5]; Gα1 blocking group (Gabra1 shRNA virus, puerarin i.p. daily), Day 2) was 0.70% and 0.68% and 0.80% and 0.69% and 1.06% and 0.91% and 0.82% and 0.83%, the “c-fos staining of brain slices (DMV)” value ([5]; Gα1 blocking group (tissue-specific knockdown of Gabra1, puerarin i.p.)) was “would intervene in the inhibitory effect of puerarin on neurons in the DMV” and the “Body weight curve change percentage” value [5, 7] was 0.00%. For the same molecule, the “c-fos staining of brain slices (DMV)” value [5, 10] was “less than that of the control group” and the “Distribution of puerarin probe and colocalization with GABAA receptor staining” value [6] was “enriched in the DMV and showed prominent colocalization with staining of the GABAA receptor”.
